# Data from ChEMBL document CHEMBL5154741, “Antibacterial alkylguanidino ureas: Molecular simplification approach, searching for membrane-based MoA” (Eur J Med Chem, 2022).
# Calls of active or inactive are those of the source. No cut-off for these calls is given here.
# Assays:
# Streptococcus pyogenes = experiment: Antibacterial activity against Streptococcus pyogenes ATCC 12344 assessed as bacterial growth inhibition incubated for 18 hrs by micro-dilution broth method; type: functional
# Acinetobacter baumannii [1] = experiment: Antibacterial activity against Acinetobacter baumannii ATCC 17978 assessed as bacterial growth inhibition incubated for 18 hrs by micro-dilution broth method; type: functional
# Klebsiella pneumoniae [2] = experiment: Antibacterial activity against pan drug-resistant Klebsiella pneumoniae S1-081Rb assessed as bacterial growth inhibition incubated for 18 hrs by CLSI based micro-dilution broth method; type: functional
# Enterobacter cloacae = experiment: Antibacterial activity against Enterobacter cloacae VA-417/02 assessed as bacterial growth inhibition incubated for 18 hrs by CLSI based micro-dilution broth method; type: functional
# Staphylococcus aureus = experiment: Antibacterial activity against Staphylococcus aureus ATCC 25923 assessed as bacterial growth inhibition incubated for 18 hrs by micro-dilution broth method; type: functional
# Lipid bilayer [3] = experiment: Binding affinity to bacterial membrane mimic POPG large unilamellar vesicle assessed as bathochromic shift at 125 uM measured at t = 0 by UV-Vis spectrophotometric analysis
# Acinetobacter baumannii [4] = experiment: Antibacterial activity against Acinetobacter baumannii AC-54/97 assessed as bacterial growth inhibition incubated for 18 hrs by CLSI based micro-dilution broth method; type: functional
# Klebsiella pneumoniae [5] = experiment: Antibacterial activity against Klebsiella pneumoniae ATCC 13833 assessed as bacterial growth inhibition incubated for 18 hrs by micro-dilution broth method; type: functional
# Escherichia coli = experiment: Antibacterial activity against Escherichia coli CCUG assessed as bacterial growth inhibition incubated for 18 hrs by micro-dilution broth method; type: functional
# Bacillus subtilis = experiment: Antibacterial activity against Bacillus subtilis ATCC 6633 assessed as bacterial growth inhibition incubated for 18 hrs by CLSI based micro-dilution broth method; type: functional
# Pseudomonas aeruginosa = experiment: Antibacterial activity against Pseudomonas aeruginosa ATCC 27853 assessed as bacterial growth inhibition incubated for 18 hrs by micro-dilution broth method; type: functional
# Lipid bilayer [6] = experiment: Binding affinity to bacterial membrane mimic POPG large unilamellar vesicle assessed as hyperchromic shift at 125 uM measured after 1 hr by UV-Vis spectrophotometric analysis
# Enterococcus faecalis = experiment: Antibacterial activity against Enterococcus faecalis ATCC 19433 assessed as bacterial growth inhibition incubated for 18 hrs by micro-dilution broth method; type: functional
# Cell membrane [7] = experiment: Disruption of membrane integrity in Escherichia coli MG1655 assessed as increase in PI uptake at 16 ug/ml measured every 15 mins for 6 hrs by SYTO9/PI staining based fluorometric analysis; conditions: dose 16.0 µg/ml
# Cell membrane [8] = experiment: Disruption of membrane integrity in Acinetobacter baumannii ATCC 17978 assessed as increase in PI uptake at 16 ug/ml measured after 15 mins by SYTO9/PI staining based fluorometric analysis; conditions: dose 16.0 µg/ml
# Cell membrane [9] = experiment: Disruption of membrane integrity in Staphylococcus aureus ATCC 25923 assessed as increase in PI uptake at 16 ug/ml measured after 1 hr by SYTO9/PI staining based fluorometric analysis; conditions: dose 16.0 µg/ml
# [10] = Hemolytic activity against human RBC at 16 ug/ml incubated for 30 mins relative to control; type: toxicity, cell-based, Erythrocyte; conditions: human red blood cells (erythrocytes), at 16 µg/mL, read-out: Activity
# [11] = Apparent permeability of the compound across bacterial inner membrane mimic pure POPG in PBS buffer assessed as membrane retention at pH 7.4 incubated for 5 hrs by PAMPA based UV-Vis spectrophotometric analysis; type: ADME, cell membranes; conditions: pH 7.4, 5 h
# Cell membrane [12] = experiment: Disruption of membrane integrity in Acinetobacter baumannii ATCC 17978 assessed as increase in PI uptake at 16 ug/ml measured after 1 hr by SYTO9/PI staining based fluorometric analysis; type: subcellular; conditions: dose 16.0 µg/ml
# Cell membrane [13] = experiment: Disruption of membrane integrity in Staphylococcus aureus ATCC 25923 assessed as increase in PI positive cells at 16 ug/ml measured after 1 hr by SYTO9/PI staining based confocal laser scanning microscope analysis; type: subcellular; conditions: dose 16.0 µg/ml
# Cell membrane [14] = experiment: Disruption of membrane integrity in Bacillus subtilis ATCC 6633 assessed as increase in PI positive cells at 16 ug/ml measured after 1 hr by SYTO9/PI staining based confocal laser scanning microscope analysis; type: subcellular; conditions: dose 16.0 µg/ml
# Cell membrane [15] = experiment: Disruption of membrane integrity in Escherichia coli MG1655 assessed as increase in PI positive cells at 16 ug/ml measured after 1 hr by SYTO9/PI staining based confocal laser scanning microscope analysis; type: subcellular; conditions: dose 16.0 µg/ml
# Cell membrane [16] = experiment: Disruption of membrane integrity in Bacillus subtilis ATCC 6633 assessed as increase in PI uptake at 16 ug/ml measured after 1 hr by SYTO9/PI staining based fluorometric analysis; type: subcellular; conditions: dose 16.0 µg/ml
# Cell membrane [17] = experiment: Disruption of membrane integrity in Escherichia coli MG1655 assessed as increase in PI uptake at 16 ug/ml measured after 1 hr by SYTO9/PI staining based fluorometric analysis; type: subcellular; conditions: dose 16.0 µg/ml
# [18] = Apparent permeability of the compound across bacterial inner membrane mimic POPE/POPG (6:4) in PBS buffer assessed as membrane retention at pH 7.4 incubated for 5 hrs by PAMPA based UV-Vis spectrophotometric analysis; type: ADME, cell membranes; conditions: pH 7.4, 5 h
# [19] = Apparent permeability of the compound across bacterial inner membrane mimic POPE/POPG (6:4) in PBS buffer at pH 7.4 incubated for 5 hrs by PAMPA based UV-Vis spectrophotometric analysis; type: ADME
# Cell membrane [20] = experiment: Disruption of membrane integrity in Staphylococcus aureus ATCC 25923 assessed as increase in PI uptake at 16 ug/ml measured every 15 mins for 6 hrs by SYTO9/PI staining based fluorometric analysis; type: subcellular; conditions: dose 16.0 µg/ml
# [21] = Apparent permeability of the compound across bacterial inner membrane mimic pure POPG in PBS buffer at pH 7.4 incubated for 5 hrs by PAMPA based UV-Vis spectrophotometric analysis; type: ADME
# Cell membrane [22] = experiment: Disruption of membrane integrity in Acinetobacter baumannii ATCC 17978 assessed as increase in PI positive cells at 16 ug/ml measured after 1 hr by SYTO9/PI staining based confocal laser scanning microscope analysis; conditions: dose 16.0 µg/ml
# [23] = Hemolytic activity against human RBC at 8 ug/ml incubated for 30 mins (reference value: 0%); type: toxicity, cell-based, Erythrocyte; conditions: human red blood cells (erythrocytes), at 8 µg/mL, read-out: Activity
# [24] = Hemolytic activity against human RBC at 64 ug/ml incubated for 30 mins (reference value: 0%); type: toxicity, cell-based, Erythrocyte; conditions: human red blood cells (erythrocytes), at 64 µg/mL, read-out: Activity
# [25] = Hemolytic activity against human RBC at 32 ug/ml incubated for 30 mins (reference value: 0%); type: toxicity, cell-based, Erythrocyte; conditions: human red blood cells (erythrocytes), at 32 µg/mL, read-out: Activity
# [26] = Hemolytic activity against human RBC at 1 ug/ml incubated for 30 mins (reference value: 0%); type: toxicity, cell-based, Erythrocyte; conditions: human red blood cells (erythrocytes), at 1 µg/mL, read-out: Activity
# Cell membrane [27] = experiment: Disruption of membrane integrity in Enterococcus faecalis ATCC 19433 assessed as increase in PI uptake at 16 ug/ml measured after 15 mins by SYTO9/PI staining based fluorometric analysis; conditions: dose 16.0 µg/ml
# Cell membrane [28] = experiment: Disruption of membrane integrity in Bacillus subtilis ATCC 6633 assessed as increase in PI uptake at 16 ug/ml measured after 15 mins by SYTO9/PI staining based fluorometric analysis; conditions: dose 16.0 µg/ml
# Cell membrane [29] = experiment: Disruption of membrane integrity in Enterococcus faecalis ATCC 19433 assessed as increase in PI positive cells at 16 ug/ml measured after 1 hr by SYTO9/PI staining based confocal laser scanning microscope analysis; type: subcellular; conditions: dose 16.0 µg/ml
# [30] = Hemolytic activity against human RBC at 2 ug/ml incubated for 30 mins (reference value: 0%); type: toxicity, cell-based, Erythrocyte; conditions: human red blood cells (erythrocytes), at 2 µg/mL, read-out: Activity
# Cell membrane [31] = experiment: Disruption of membrane integrity in Pseudomonas aeruginosa ATCC 27853 assessed as increase in PI positive cells at 16 ug/ml measured after 1 hr by SYTO9/PI staining based confocal laser scanning microscope analysis; type: subcellular; conditions: dose 16.0 µg/ml
# Cell membrane [32] = experiment: Disruption of membrane integrity in Pseudomonas aeruginosa ATCC 27853 assessed as increase in PI uptake at 16 ug/ml measured after 1 hr by SYTO9/PI staining based fluorometric analysis; type: subcellular; conditions: dose 16.0 µg/ml
# [33] = Hemolytic activity against human RBC at 4 ug/ml incubated for 30 mins (reference value: 0%); type: toxicity, cell-based, Erythrocyte; conditions: human red blood cells (erythrocytes), at 4 µg/mL, read-out: Activity
# Cell membrane [34] = experiment: Disruption of membrane integrity in Pseudomonas aeruginosa ATCC 27853 assessed as increase in PI uptake at 16 ug/ml measured every 15 mins for 6 hrs by SYTO9/PI staining based fluorometric analysis; conditions: dose 16.0 µg/ml
# Cell membrane [35] = experiment: Disruption of membrane integrity in Enterococcus faecalis ATCC 19433 assessed as increase in PI uptake at 16 ug/ml measured after 1 hr by SYTO9/PI staining based fluorometric analysis; type: subcellular; conditions: dose 16.0 µg/ml
compound,measurement,setting,value
N=C(N)NCCCCCCCCN(CCCCCCCCN)C(=O)N(CCCCCCCCNC(=N)N)CCCCCCCCNC(=N)N,MIC,Streptococcus pyogenes,0.25 µg/mL
same,MIC,Acinetobacter baumannii [1],16 µg/mL
same,MBC,Klebsiella pneumoniae [2],16 µg/mL
same,MIC,Klebsiella pneumoniae [2],16 µg/mL
same,MBC,Enterobacter cloacae,8 µg/mL
same,MIC,Enterobacter cloacae,8 µg/mL
same,MIC,Staphylococcus aureus,1 µg/mL
same,Activity,Lipid bilayer [3],Active
same,MBC,Acinetobacter baumannii [4],8 µg/mL
same,MIC,Acinetobacter baumannii [4],8 µg/mL
same,MIC,Klebsiella pneumoniae [5],8 µg/mL
same,MIC,Escherichia coli,2 µg/mL
same,MIC,Bacillus subtilis,1 µg/mL
same,MIC,Pseudomonas aeruginosa,16 µg/mL
same,Activity,Lipid bilayer [6],Active
same,MIC,Enterococcus faecalis,4 µg/mL
CCCCCCCCN(CCCCCCCCNC(=N)NCC1CC1)C(=O)N(CCCCCCCCNC(=N)NCC1CC1)CCCCCCCCNC(=N)NCC1CC1,MIC,Streptococcus pyogenes,1 µg/mL
same,MIC,Acinetobacter baumannii [1],4 µg/mL
same,MIC,Staphylococcus aureus,16 µg/mL
same,Activity,Lipid bilayer [3],Active
same,MIC,Klebsiella pneumoniae [5],4 µg/mL
same,MIC,Escherichia coli,4 µg/mL
same,MIC,Bacillus subtilis,2 µg/mL
same,MIC,Pseudomonas aeruginosa,8 µg/mL
same,Activity,Lipid bilayer [6],Active
same,MIC,Enterococcus faecalis,2 µg/mL
N=C(N)NCCCCCCCCN(CCCCCCCCNC(=N)NCC1CC1)C(=O)N(CCCCCCCCNC(=N)N)CCCCCCCCNC(=N)NCC1CC1,Activity,Cell membrane [7],Active
same,Activity,Cell membrane [8],Active
same,Activity,Cell membrane [9],Active
same,"hemolysis at 0.5 h, 16 ug/ml",[10],1.2%
same,R%,[11],46.1%
same,Activity,Cell membrane [12],Active
same,Activity,Cell membrane [13],Active
same,Activity,Cell membrane [14],Active
same,Activity,Cell membrane [15],Active
same,Activity,Cell membrane [16],Active
same,Activity,Cell membrane [17],Active
same,R%,[18],42.4%
same,Papp at 5 h,[19],0.74 ×10⁻⁶ cm/s
same,Activity,Cell membrane [20],Active
same,Papp at 5 h,[21],1.88 ×10⁻⁶ cm/s
same,Activity,Cell membrane [22],Active
same,Activity,Lipid bilayer [3],Active
same,"hemolysis at 0.5 h, 8 ug/ml",[23],0.8%
same,"hemolysis at 0.5 h, 64 ug/ml",[24],3.4%
same,"hemolysis at 0.5 h, 32 ug/ml",[25],2%
same,"hemolysis at 0.5 h, 1 ug/ml",[26],0%
same,Activity,Cell membrane [27],Active
same,Activity,Cell membrane [28],Active
same,Activity,Cell membrane [29],Active
same,"hemolysis at 0.5 h, 2 ug/ml",[30],0.2%
same,Activity,Cell membrane [31],Active
same,Activity,Lipid bilayer [6],Active
same,Activity,Cell membrane [32],Active
same,"hemolysis at 0.5 h, 4 ug/ml",[33],0.4%
same,Activity,Cell membrane [34],Active
same,Activity,Cell membrane [35],Active
